Article PMC9986249, “Comparative study on antibacterial characteristics of the multiple liver expressed antimicrobial peptides (LEAPs) in teleost fish” (Frontiers in Immunology, 2023)
No end group written: not given here.

Legend:
V. fluvialis WY91-24-3 = test: Bacterial membrane permeability assay (PI influx, flow cytometry); assay type: cell-based, Vibrio fluvialis; settings: peptide 8 μM, 10 mM NaPB pH 7.4, 37°C, 1 h; PI 9 μM; flow cytometry, 3,000 events; representative of three independent experiments
Description: The membrane permeability of bacteria after the treatment of peptides was assessed by flow cytometry as previously described ([33]) with minor modifications. In brief, V. fluvialis WY91-24-3 were cultured to mid-logarithmic phase, then washed twice and resuspended to 10^6 CFU/ml with 10 mM NaPB (pH 7.4). Thereafter, 40 μl of peptides diluted in NaPB was added to 160 μl of V. fluvialis to give a final concentration of 8 μM. LL37 and NaPB was used as the positive and negative control, respectively. After being incubated at 37°C for 1 h, propidium iodide (PI; Sigma-Aldrich) was added to the bacterial suspension at a final concentration of 9 μM. The PI positive bacterial cells were detected using the flow cytometer FACSVerse (BD Biosciences) at 3,000 events and the data were analyzed using the FlowJo software v10 (Tree Star).
Figure 6 Antibacterial mechanisms of LEAPs. (A–J) Membrane permeability of V. fluvialis treated with LEAPs. The bacteria were incubated with LEAPs (8 μM) at 37°C for 1 h, and a bacterial suspension without peptide was included as a control (Ctrl). Then PI (9 μM) was added and the influx of PI was detected by flow cytometry. Data are representative results of three independent experiments. (K) The data in (A–J) were analyzed statistically. The p value was calculated by one-way ANOVA with a Dunnett post hoc test. Different letters indicate significant differences (p<0.05). […]

[1] = test system: Gram-positive and Gram-negative bacteria; settings: cited from earlier work
Description: Mammalian LEAP-2 is a single gene, which is mainly expressed by the liver, and to a certain extent by other tissues ([18]). For example, mouse LEAP-2 is mainly expressed in the liver and small intestine ([18]). […] Therefore, LEAP-2 may have other physiological functions besides sterilization. However, unlike mammals with a single LEAP-2 ...

In the case of “LL-37: human AMP LL-37, positive control of the membrane permeability assay (LLGDFFRKSKEKIGKEFKRIVQRIKDFLRNLVPRTES; Antibacterial peptide LL-37; UniProt P49913 134-170, looked up)”, the “PI positive bacterial cells” value (V. fluvialis WY91-24-3) was 85.2%.
For “cleaved form 44-77: cleaved form 44-77 of human LEAP-2 (GVSLRPIGASCRDDSECITRLCRKRRCSLSVAQE; ends and bridges not checked; cysteine pairing not given here; UniProt Q969E1 44-77, looked up, fragment)”, the antibacterial activity [1] is listed as “loses antibacterial activity”.
In the case of “mature peptide 38-77 of human LEAP-2: mature peptide 38-77 of human LEAP-2 (MTPFWRGVSLRPIGASCRDDSECITRLCRKRRCSLSVAQE; ends and bridges not checked; cysteine pairing not given here; UniProt Q969E1 38-77, looked up)”, the antibacterial activity [1] is listed as “different killing effects”.
